Legend:
S6K and 4E-BP1 = experiment: Phosphorylation of mTOR substrates S6K and 4E-BP1 in MDA-MB-231 cells (Western blot); assay type: cell-based, human; details: honokiol 20 μM, 0.5% serum
Description: In FIG. 15A, MDA-MB-231 cells were plated in DMEM with 10% serum. 48 hr later the cells were shifted to 0.5% for 16 hr. Honokiol (20 μM) or control ethanol was then added for the indicated times. The cells were then harvested and analyzed for levels of S6K, phosphorylated S6K (P-S6K), 4E-BP1, and P-4E-BP1 by Western blot analysis as described previously (Zheng et al., “Phospholipase D Couples Survival and Migration Signals in Response to Stress in Human Breast Cancer Cells,” J. Biol. Chem. 281:15862-8 (2006), which is hereby incorporated by reference in its entirety). In FIG. 15B, 786-O cells were plated and then shifted to media containing 0.5% serum 24 hr later. 18 hr later, the cells were treated with 1-Bt0H (0.8%), honokiol (Hon) (20 μM), and t-BtOH (0.8%) as indicated. Cell lysates were prepared 4 hr later and examined for HIF2α and actin expression by Western lot analysis. The experiment shown is representative of two independent experiments.
Extraction of proteins from cultured cells and Western blot analysis of extracted proteins was performed using the ECL system (Amersham) as described previously (Chen et al., “Alternative Phospholipase D/mTOR Survival Signal in Human Breast Cancer Cells,” Oncogene 24:672-9 (2005), which is hereby incorporated by reference in its entirety). […]

[1] = test system: PLD activity in Calu-1 cells; experiment: In vivo PLD activity in Calu-1 lung cancer cells; assay type: cell-based, human; details: honokiol 20 μM, 4 hr
Description: In FIG. 17A, T24 and Calu1 cells (obtained from the American Type Culture Collection) were plated in DMEM containing 10% serum for 48 hr and then shifted to either 10% serum or 0.5% serum overnight as indicated. Honokiol (20 μM) or control ethanol was then added for 4 hr as indicated. [^3H]-Myristate was added with the honokiol. After 4 hr, BtOH (0.7%) was added for 20 min, at which time the cells were harvested and the level of phosphatidyl-BtOH (P-Bt) was determined as in FIGS. 12A-C. The experiments shown are representative of at least two independent experiments. In FIG. 17B, T24 and Calu-1 cells were plated in DMEM with 10% serum for 48 hr then changed to DMEM containing either 10% or 0.5% serum overnight as indicated. […]
For in vivo PLD activity, cells were plated in 60 mm culture dishes in DMEM with 10% serum at a density that would allow them to grow to about 80% confluence after 2 days, then cells were shifted to DMEM containing 0.5% or 10% serum as indicated in the figure legends overnight. […] Briefly, PLD activity was measured by the release of [methyl-^3H] choline from [choline-methyl-^3H]dipalmitoyl-phosphatidylcholine. […] Free [methyl-^3H] choline was separated from precipitated lipids and proteins by centrifugation and was analyzed by liquid scintillation counting. […]

SMILES: C=CCc1ccc(O)c(-c2ccc(O)c(CC=C)c2)c1 [honokiol, Honokiol]
- phosphorylation of 4E-BP1 (S6K and 4E-BP1): suppressed
- phosphorylation of S6K (S6K and 4E-BP1): suppressed
- stress-induced PLD activity ([1]; 0.5% serum): suppressed
- PLD activity observed in the presence of serum ([1]; 10% serum): little effect

Source: US20120301895A1, “METHODS OF MODULATING BINDING OF SON OF SEVENLESS TO PHOSPHATIDIC ACID AND IDENTIFYING COMPOUNDS THAT MODULATE SUCH BINDING” (THE RESEARCH FOUNDATION OF STATE UNIVERSITY OF NEW YORK, priority 2007, published 2012)
